Results from patent US20240269116A1, “USE OF MMP INHIBITORS FOR TREATING ACUTE RESPIRATORY DISTRESS SYNDROME” (Foresee Pharmaceuticals Co., Ltd., priority 2021, published 2024).
Entries after “also recorded” stand apart in the source; their conditions may differ.

Test system: LPS-induced acute lung injury (ALI)
Assay: LPS-induced mice acute lung injury (ALI) model, BAL fluid cell counts and lung histology at 24 hours
Format: in vivo, Male C57BL/6 mice
Description: The compound of formula (F-I) was evaluated for the therapeutic efficacy in the LPS-induced mice ALI model. In this study, animals were anesthetized with 2.5% isoflurane inhalation. LPS was used to create ALI at the dose of 3 mg/kg in 50 μl via a direct intratracheal injection. For sham animals, an equal volume of saline solution was directly injected into the trachea. After LPS injection, the test article compound of formula (F-I) was dosed at different single oral doses and different therapeutic time points. Male C57BL/6 mice (n=100) were used in this study. DEX was used as positive control. Animals were randomly divided into 10 groups and dose regimens are described in Table 1. At 24 hours after injection, all animals were euthanized and processed for bronchoalveolar lavage (BAL) fluid collection from bilateral lungs and formalin-fixation of lung tissue pathology studies. [table]

[1] = lung histology at 24 hours of ALI, treatment at 4 or 8 hours of ALI, all dosages, vs model
[2] = single oral dose at 4 or 8 hours of ALI (F-I 1, 3, 10 mg/kg; DEX 3 mg/kg), BAL at 24 hours, vs Vehicle group

## Cc1cccc(COc2ccc(Sc3ccoc3C3NC(=O)NC3=O)cc2)c1 (stereo not drawn) [compound of formula (F-I)]
1 mg/kg via oral gavage at 4 or 8 hours of ALI
  therapeutic efficacy at lower doses: significant therapeutic efficacy
10 mg/kg at 4 hours and 8 hours of ALI, conclusion
  overall efficacy at 10 mg/kg: better
1, 3, 10 mg/kg, dosing at 4 or 8 hours of ALI, histology
  dose dependence of lung tissue protection: no clear dose-dependent lung tissue protection
conclusion, dosing at 8 hours compared with 4 hours of ALI
  overall therapeutic efficacy, dosing at 8 hours vs 4 hours of ALI: slightly better
Dose of 10 mg/kg compared with 1 and 3 mg/kg
  efficacy in BAL fluid analysis, comparison of doses: best efficacy
[1]
  alveolar damages (lung histology): reduction
  bronchial and arteriole damages (lung histology): reduction
  total lung injury (lung histology): reduction
[2]
  neutrophils in BAL fluid: clear trend of dose-dependent reduction; also recorded: reduced
  total inflammatory cells in BAL fluid: clear trend of dose-dependent reduction; also recorded: reduced
Treatment at 8 hours of ALI compared to 4 hours of ALI
  effect on BAL fluid cells, treatment at 8 hours vs 4 hours of ALI: better effect than that at 4 hours of ALI
Treatment at 8 hours of ALI compared to 4 hours of ALI, histology at 24 hours
  lung histology efficacy, treatment at 8 hours vs 4 hours of ALI: better efficacy
